Values after ≈ are worked out from the molar mass of the structure shown. Values joined by “and” are separate entries in the source; they are usually repeats but may differ in a detail not shown here. Equal entries are not always repeated. Where two headings read alike, the source gives them in different places.
Assays:
[1] = Antioxidant activity, DPPH assay; type: biochemical; settings: not UV-irradiated; curcumin concentration; 40 min
Experimental: The samples were vortexed for 20 to 30 s, and their absorbance was measured at 517 nm after 40 min using a UV spectrophotometer (BOECO S-22) (BOECO, Hamburg, Germany). Ethanol is used for calibration, and ascorbic acid serves as a standard for antioxidant activity.
The percentage of DPPH inhibition for each sample type was determined, and the IC50 values were calculated based on the concentration (μg/mL) vs. inhibition plots. Ascorbic acid was used as a standard. All measurements were performed in triplicate at room temperature.

[2] = test system: C6 tumor cell line; assay: Cell apoptosis by Annexin V-FITC/PI flow cytometry; type: cell-based, Rattus norvegicus; settings: C6, 7.5 µg/mL, 24 h
Excerpt: (§1) The possible mechanism of action for the analyzed nanoparticles was established by determining the process of cellular apoptosis using flow cytometry, a method that enabled the assessment of the percentage of live, dead, pre-apoptotic, and apoptotic cells (Table S2 and Figure 8).
(§2) Apoptosis, also known as programmed cell death, is a natural process for eliminating cells. It involves the formation of membrane vesicles, chromatin condensation, and DNA fragmentation. Annexin V, which is a calcium-dependent protein, binds with high affinity to phosphatidylserine (PS), which moves from the inner to the outer membrane during apoptosis. When Annexin V is fluorescently labeled, this PS exposure can be detected using flow cytometry. The presence of PS signals macrophages to clear the cell through phagocytosis. […] In late apoptotic and necrotic cells, both the plasma and nuclear membrane integrity is compromised, enabling propidium iodide to penetrate the membrane, bind to nucleic acids, and produce red fluorescence. Cells were cultured in 24-well plates at a density of 50,000 cells per well to create a monolayer. After 24 h of incubation, test compounds (free drugs or nanoparticle formulations) were applied at a concentration of 7.5 µg/mL and incubated for an additional 24 h. Flow cytometry was used to process and analyze the cells according to the manufacturer’s instructions for the assay kit. For interpretation, cells that were negative for both propidium iodide (PI) and Annexin V were classified as viable; cells that were Annexin V-positive and PI-negative were considered apoptotic; and cells that were positive for both markers were identified as necrotic.

[3] = test system: V79-4 normal cell line; assay: Cell apoptosis by Annexin V-FITC/PI flow cytometry; type: cell-based, Cricetulus griseus; settings: V79-4, 7.5 µg/mL, 24 h
Excerpt: as §1, §2

[4] = PAMPA-BBB permeability assay (kit PMBBB-096); type: in vitro ADME; settings: for Papp at 18 h, 500 μM: PAMPA, 37 °C
Experimental: The in vitro parallel artificial permeability assay (PAMPA, Kit PMBBB-096 from BioAssay Systems (Hayward, CA, USA)) was employed to evaluate whether nanoparticles can cross the BBB. […] As a negative standard, we used the low-permeability (LP) and high-permeability (HP) standards from the PAMPA-BBB kit from Bioassay.
Specifically, the PMBBB-096 (BioAssay Systems Hayward, CA, USA) kit supports in vitro assessment of BBB permeability. […] Three hundred microliters (300 μL) of 0.01 M PBS with 5% DMSO was added to the acceptor plate (96-well PTFE acceptor plates) (BioAssay Systems Hayward, CA, USA). The donor plate (96-well polycarbonate filter-based donor plates, pore size 0.45 μm) was coated with 5 μL of lyophilized brain lipid extract solution, made by dissolving the brain extract in 400 μL of dodecane. […] In parallel, 200 μM equilibrium standards were prepared in separate Eppendorf tubes for each test and control sample. In Eppendorf tubes, 80 μL of test solutions or the control standard at a concentration of 500 μM were mixed with 120 μL of PBS solution containing 5% DMSO. The blank was prepared using the PBS solution with 5% DMSO. The next day, equilibrium standards and the blank solution were utilized, and the acceptor compartment’s solution was analyzed. […] Based on the absorbance value determined for each respective test sample and the permeability control standard, the permeability rate (Pe) was calculated using the following Equation (4):(4) Pe=C×−ln1−ODA/ODE,cm/s where ODA represents the absorbance of the acceptor plate solution minus the absorbance of the blank, and ODE indicates the absorbance of the equilibrium standard minus the absorbance of the blank.

[5] = Cytotoxicity, MTT assay; settings: Chinese hamster, V79-4 lung fibroblasts (ATCC CCL-93), 48 h; for viability at 48 h, 1.875 μg/mL: Cell viability (%) V79-4, 1.875 μg/mL (nanoparticles or free drug); for viability at 48 h, 3.75 μg/mL: Cell viability (%) V79-4, 3.75 μg/mL; for viability at 48 h, 7.5 μg/mL: Cell viability (%) V79-4, 7.5 μg/mL; for viability at 48 h, 15 μg/mL: Cell viability (%) V79-4, 15 μg/mL
Experimental: (§3) This IC50 value was derived from a graph plotting the percentage of dead cells against the drug concentration in the samples. […] A lower IC50 value indicates the higher cytotoxicity of the samples.
(§4) In both cases, the growth media were supplemented with 10% fetal bovine serum (SFB, Euroclone S.p.A., Milan, Italy) and 1% antibiotic solution, containing penicillin at […] and streptomycin at 100 IU/mL (Capricorn Scientific GmbH, Ebsdorfergrund, Germany), maintained at a temperature of 37 °C in a humidified environment with 5% CO2 [130]. Products tested: Albumin nanoparticles obtained through self-assembly and crosslinking with OG were evaluated.
(§5) This method relies on the conversion of MTT, a water-soluble yellow compound, into dark blue, water-insoluble formazan by the mitochondrial dehydrogenases of living cells. […] After treatment, the medium was removed, the cells were washed with phosphate-buffered saline (PBS), and then incubated with 100 μL of fresh medium and 10 μL of MTT (5 mg/mL) for 3 h at 37 °C. The resulting formazan crystals were solubilized with 50 μL of DMSO, and absorbance was measured at 570 nm using the EZ Read 400 reader (Biochrom, Cambridge, UK). The intensity of the resulting color directly correlates with the number of viable cells, and viability was calculated using Equation (6):Cell viability (%) = Esample/Econtrol × 100, where E = extinction(6)

[6] = test system: C6 tumor cells; assay: Cytotoxicity, MTT assay; settings: for viability at 1.875 µg/mL / viability at 3.75 µg/mL / viability at 7.5 µg/mL / viability at 15 µg/mL / IC50: Rattus norvegicus; for viability at 1.875 µg/mL / viability at 3.75 µg/mL / viability at 7.5 µg/mL / viability at 15 µg/mL / Percentage of dead cells per C6 cell line (cytotoxic effect): 48 h; for viability at 1.875 µg/mL: read-out: Cell viability (%) C6, 1.875 μg/mL (nanoparticles or free drug), 48 h; for viability at 3.75 µg/mL: read-out: Cell viability (%) C6, 3.75 μg/mL, 48 h; for viability at 7.5 µg/mL: read-out: Cell viability (%) C6, 7.5 μg/mL, 48 h; for viability at 15 µg/mL: read-out: Cell viability (%) C6, 15 μg/mL, 48 h; for IC50: C6, 48 h
Experimental: as §3, §4, §5

[7] = test system: normal V79-4 cells; assay: Cytotoxicity, MTT assay; settings: for Percentage of dead cells per V79-4 cell line (cytotoxic effect): 48 h; for IC50: Cricetulus griseus, V79-4, 48 h
Experimental: as §3, §4, §5

[8] = pH stability of free and encapsulated curcumin; type: physicochemical; set-up: degradation rate constant k: unit: h⁻¹; settings: dark; for half-life at 4 μg/mL: read-out: degradation half-life t1/2 (converted)
Experimental: The samples were maintained at 37 °C in the dark, in closed containers, for 8 h. […] The particles were maintained at 37 °C in an oven (AG-System, F.lli Galli G. & P., Milano, Italia) protected from light and air exposure. […] The amount of curcumin found in the samples was then determined using a Nanodrop spectrophotometer. […] The half-life (t1/2) for first-order reactions depends solely on the degradation rate constant, k, and is independent of the substance’s initial concentration. All measurements were conducted in triplicate, and the results are reported as average values ± standard deviation (STDev).

[9] = Light stability of free and encapsulated curcumin (natural light and air); type: physicochemical
Experimental: The analyzed HSA nanoparticles were weighed and then exposed to air and natural light for 30 days in Petri dishes. […] All determinations were performed in triplicate, and the results are presented as mean values ± standard deviation (STDev).

[10] = set-up: method as in PMID 32494134, PMID 35684445, PMID 25751368; settings: rapidly hydrolyzed in physiological conditions; cited from earlier work
[11] = read-out: IC50 μg/mL for TMZ/CURC on the C6 Cell Line
[12] = read-out: IC50 μg/mL for TMZ/CURC on the V79-4 Cell Line

SMILES: O=C1O[C@H]([C@@H](O)CO)C(O)=C1O [Ascorbic acid, ascorbic acid]
- IC50 (DPPH) [1]: 4.3 µg/mL (≈ 24.4 µM)

SMILES: COc1cc(/C=C/C(=O)CC(=O)/C=C/c2ccc(O)c(OC)c2)ccc1O [Curcumin, curcumin]
- Apoptotic cells (%) [2]: 35.64%
- Dead cells (%) [2]: 14.33%
- Living cells (%) [2]: 37.92%
- Preapoptotic cells (%) [2]: 12.11%
- Apoptotic cells (%) [3]: 27.09%
- Dead cells (%) [3]: 17.93%
- Living cells (%) [3]: 43.47%
- Papp at 18 h, 500 μM ([4]; pH 7.4, Permeability rate, Pe (Curcumin), PAMPA-BBB, read at 425 nm): 0.21 ×10⁻⁶ cm/s
- viability at 48 h, 1.875 μg/mL [5]: 75.8%
- viability at 48 h, 3.75 μg/mL [5]: 60.9%
- viability at 48 h, 7.5 μg/mL [5]: 52.7%
- viability at 48 h, 15 μg/mL [5]: 41.6%
- viability at 1.875 µg/mL [6]: 62.3%
- viability at 3.75 µg/mL [6]: 55.8%
- viability at 7.5 µg/mL [6]: 39.2%
- viability at 15 µg/mL [6]: 37.4%
- IC50 [6, 11]: 6.31 µg/mL (≈ 17.1 µM)
- IC50 ([6]; read-out: IC50 for μg/mL for CURC on the C6 Cell Line): 6.31 µg/mL (≈ 17.1 µM)
- Percentage of dead cells per C6 cell line (cytotoxic effect) ([6]; rat, 1.875 μg/mL): 37.66%
- Percentage of dead cells per C6 cell line (cytotoxic effect) ([6]; rat, 3.75 μg/mL): 44.22%
- Percentage of dead cells per C6 cell line (cytotoxic effect) ([6]; rat, 7.5 μg/mL): 60.84%
- Percentage of dead cells per C6 cell line (cytotoxic effect) ([6]; rat, 15 μg/mL): 62.63%
- Percentage of dead cells per V79-4 cell line (cytotoxic effect) ([7]; 1.875 μg/mL): 24.21%
- Percentage of dead cells per V79-4 cell line (cytotoxic effect) ([7]; 3.75 μg/mL): 39.14%
- Percentage of dead cells per V79-4 cell line (cytotoxic effect) ([7]; 7.5 μg/mL): 47.33%
- Percentage of dead cells per V79-4 cell line (cytotoxic effect) ([7]; 15 μg/mL): 58.41%
- IC50 ([7]; read-out: IC 50 μg/mL for CURC on the V79-4 Cell Line): 10.4 µg/mL (≈ 28.1 µM)
- IC50 [7, 12]: 10.4 µg/mL (≈ 28.1 µM)
- half-life at 4 μg/mL ([8]; buffer solution (pH 3), pH 3, 37 °C): 7.7 h
- half-life at 4 μg/mL ([8]; buffer solution (pH 9), pH 9, 37 °C): 2.3 h
- half-life at 4 μg/mL ([8]; buffer solution, pH 6.8, 37 °C): 6.5 h
- half-life at 4 μg/mL ([8]; buffer solution, pH 7.4, 37 °C): 5.8 h
- Undegraded Curcumin (%) 1 h ([8]; pH 3, 37 °C): 76%
- Undegraded Curcumin (%) 5 h ([8]; pH 3, 37 °C): 55.7%
- Undegraded Curcumin (%) 8 h ([8]; pH 3, 37 °C): 47.6%
- degradation rate constant k ([8]; pH 3, 37 °C): 0.091
- Undegraded Curcumin (%) 1 h ([8]; pH 6.8, 37 °C): 76.4%
- Undegraded Curcumin (%) 5 h ([8]; pH 6.8, 37 °C): 56.8%
- Undegraded Curcumin (%) 8 h ([8]; pH 6.8, 37 °C): 43.7%
- degradation rate constant k ([8]; pH 6.8, 37 °C): 0.107
- Undegraded Curcumin (%) 1 h ([8]; pH 7.4, 37 °C): 77%
- Undegraded Curcumin (%) 5 h ([8]; pH 7.4, 37 °C): 52.7%
- Undegraded Curcumin (%) 8 h ([8]; pH 7.4, 37 °C): 41.1%
- degradation rate constant k ([8]; pH 7.4, 37 °C): 0.119
- Undegraded Curcumin (%) 1 h ([8]; pH 9, 37 °C): 61%
- Undegraded Curcumin (%) 5 h ([8]; pH 9, 37 °C): 21%
- Undegraded Curcumin (%) 8 h ([8]; pH 9, 37 °C): 8.6%
- degradation rate constant k ([8]; pH 9, 37 °C): 0.301
- Percentage of Degradation of curcumin, Day 3 [9]: 6.8%
- Percentage of Degradation of curcumin, Day 10 [9]: 13.5%
- Percentage of Degradation of curcumin, Day 18 [9]: 16.9%
- Percentage of Degradation of curcumin, Day 26 [9]: 26%
- Percentage of Degradation of curcumin, Day 30 [9]: 32.3%

SMILES: Cn1nnc2c(C(N)=O)ncn2c1=O [TMZ, temozolomide]
- Apoptotic cells (%) [2]: 33.59%
- Dead cells (%) [2]: 16.45%
- Living cells (%) [2]: 40.08%
- Preapoptotic cells (%) [2]: 9.88%
- Apoptotic cells (%) [3]: 24.86%
- Dead cells (%) [3]: 15.17%
- Living cells (%) [3]: 49.36%
- Preapoptotic cells (%) [3]: 10.61%
- Papp at 18 h, 500 μM ([4]; pH 7.4, PAMPA-BBB, read at 327 nm, read-out: Permeability rate, Pe (TMZ)): 0.76 ×10⁻⁶ cm/s
- BBB permeability category ([4]; PAMPA-BBB, in words): low permeability
- viability at 48 h, 1.875 μg/mL [5]: 75.8%
- viability at 48 h, 3.75 μg/mL [5]: 67%
- viability at 48 h, 7.5 μg/mL [5]: 60.4%
- viability at 48 h, 15 μg/mL [5]: 54.5%
- Percentage of dead cells per C6 cell line (cytotoxic effect) ([6]; 1.875 μg/mL): 37.7% and 34.88%
- Percentage of dead cells per C6 cell line (cytotoxic effect) ([6]; 3.75 μg/mL): 42.5%
- Percentage of dead cells per C6 cell line (cytotoxic effect) ([6]; 7.5 μg/mL): 47.05%
- Percentage of dead cells per C6 cell line (cytotoxic effect) ([6]; 15 μg/mL): 60.95% and 59.18%
- viability at 1.875 µg/mL [6]: 62.3%
- viability at 3.75 µg/mL [6]: 57.5%
- viability at 7.5 µg/mL [6]: 53%
- viability at 15 µg/mL [6]: 39%
- IC50 ([6]; read-out: IC50 μg/mL for TMZ on the C6 Cell Line): 8.75 µg/mL (≈ 45.1 µM)
- IC50 [6, 11]: 8.75 µg/mL (≈ 45.1 µM)
- Percentage of dead cells per V79-4 cell line (cytotoxic effect) ([7]; 1.875 μg/mL): 24.16%
- Percentage of dead cells per V79-4 cell line (cytotoxic effect) ([7]; 3.75 μg/mL): 33.05%
- Percentage of dead cells per V79-4 cell line (cytotoxic effect) ([7]; 7.5 μg/mL): 39.64%
- Percentage of dead cells per V79-4 cell line (cytotoxic effect) ([7]; 15 μg/mL): 45.53%
- IC50 ([7]; read-out: IC50 μg/mL for TMZ on the V79-4 Cell Line): 16.8 µg/mL (≈ 86.7 µM)
- IC50 [7, 12]: 16.8 µg/mL (≈ 86.7 µM)
- half-life [10]: 1.8 h
